{"source": "patent US8383660B2", "about": "“Dibenzyl amine compounds and derivatives” (Pfizer Inc., priority 2006, dated 2013)", "note": "Counter-ions that a name gives are not always drawn.", "data": [{"smiles": "CCOCC1(F)CCN([C@@H](c2ccc(C(F)(F)F)cc2CN(Cc2cc(C(F)(F)F)cc(C(F)(F)F)c2)c2nnn(C)n2)C(C)C)CC1", "note": "(as salt: mesylate) [Example 213, (N-[3,5-bis(trifluoromethyl)benzyl]-N-[2-{(1R)-1-[4-(ethoxymethyl)-4-fluoropiperidin-1-yl]-2-methylpropyl}-5-(trifluoromethyl)benzyl]-2-methyl-2H-tetrazol-5-amine)]", "values": [{"measurement": "melting point", "value": 95, "unit": "°C"}]}]}
